# Laboratory results reported in PMC5940834, “Discovery and functional characterisation of a luqin-type neuropeptide signalling system in a deuterostome” (Scientific Reports, 2018).
# Entries after “also recorded” stand apart in the source; their conditions may differ. Where no end group is shown, it is not given here.
# Assays:
# [1] = system: ArLQR1; test: ArLQ/neuropeptide activation of ArLQR1, bioluminescence in CHO-ArLQR1 cells; assay type: cell-based, Asterias rubens; details: ArLQ 1 × 10^−4 to 1 × 10^−14 M, other neuropeptides 1 × 10^−4 to 1 × 10^−13 M
# From the text: (§1) To enable pharmacological characterisation of ArLQR1 and ArLQR2, cDNAs encoding these receptors were amplified by PCR, using A. rubens radial nerve cord total cDNA, specific primers (see supplementary Table 1 for a list of the primers) and Q5 polymerase (NEB; Cat. No. M0491S). First, the receptor cDNAs were ligated into the phagemid vector pBluescript II SK + (Agilent Technologies; Cat. No. 212205) using a blunt-end ligation method. The vector was cut with the restriction enzyme EcoRV (NEB; Cat. No. R0195S) and the ligation was performed using T4 DNA ligase (NEB; Cat. No. M0202S). Successful ligation was confirmed by PCR, restriction enzyme digestion and sequencing (TubeSeq service; Eurofins Genomics). The receptor cDNAs were then sub-cloned into the eukaryotic expression vector pcDNA 3.1( + ) (Invitrogen; Cat. No. V790-20). To accomplish this, forward primers included the partial Kozak consensus sequence (ACC) and a sequence corresponding to the first 21 bases of the ArLQR1 or ArLQR2 ORFs, including the start codon. Reverse primers consisted of a stop codon and a sequence reverse complementary to the ORF encoding the C-terminal region of ArLQR1 or ArLQR2 (see supplementary Table 1 for a list of the primers). PCR was performed using Q5 polymerase NEB and the cDNA products were ligated into the pcDNA 3.1(+) vector that had been cut previously with the restriction enzyme EcoRV by performing blunt-end ligation with T4 DNA ligase NEB. The direction of the insert was determined by restriction enzyme digestion and sequencing. The ArLQR1 and ArLQR2 sequences have been deposited in the GenBank database under accession numbers MG744509 and MG744510 respectively.
# (§2) To determine if ArLQ acts as a ligand for ArLQR1 and/or ArLQR2, the receptors were expressed in Chinese hamster ovary cells (CHO-K1) stably expressing the calcium-sensitive bioluminescent reporter GFP-aequorin fusion protein (G5A)[43]. CHO-K1 cells were maintained at 37 °C in T25 culture flasks (USA Scientific; Cat. No. CC7682-4325) containing 6 ml of DMEM/F12 Nutrient Mixture medium (Thermo Fisher Scientific; Cat. No. 11039047) supplemented with 10% fetal bovine serum (Thermo Fisher Scientific; Cat. No. 10082147), Antibiotic-Antimycotic 1 × (Thermo Fisher Scientific, Cat. No. 15240062) and 200 μg/ml of Geneticin G418 sulfate (Thermo Fisher Scientific, Cat. No. 10131035). Upon reaching a confluency of approximately 80%, cells were transfected with the plasmids containing ArLQR1 or ArLQR2 receptor cDNAs and a plasmid containing the promiscuous Gα-16 protein that can couple a wide range of GPCRs to the phospholipase C pathway. The transfection was achieved using 5 µg of each plasmid and 8 μl of the transfection reagent Lipofectamine 3000 following the manufacturer instructions (Thermo Fisher Scientific; Cat. No. L3000008). Two days post-transfection, the culture medium was removed and the cells detached by the addition of 2 ml of 1 × PBS buffer pH 7.4 (Thermo Fisher Scientific; Cat. No. 10010023) supplemented with UltraPure EDTA 0.5 M pH 8.0 (Thermo Fisher Scientific; Cat. No. 15575020) to a final concentration of 5 mM EDTA. […] Luminescence levels were recorded over a 35-second period using a FLUOstar Omega Plate Reader (BMG LABTECH; FLUOstar Omega Series multi-mode microplate reader). […]
# [2] = system: ArLQR2; test: ArLQ/neuropeptide activation of ArLQR2, bioluminescence in CHO-ArLQR2 cells; assay type: cell-based, Asterias rubens; details: ArLQ 1 × 10^−4 to 1 × 10^−14 M, other neuropeptides 1 × 10^−4 to 1 × 10^−13 M
# From the text: as §1, §2
# [3] = system: tube foot preparations; details: A. rubens; cited from earlier work
# From the text: Figure 6 ArLQ causes relaxation of in vitro preparations of tube feet from A. rubens. […] (B). […] Tube foot preparations were obtained by dissecting from starfish arms a small square-shaped piece of ambulacral body wall containing a single tube foot stem and its associated ampulla. Co ...
# [4] = system: cardiac stomach preparations; details: "all three of these preparations"; cited from earlier work
# Method: Informed by findings from analysis of the expression of ArLQP in A. rubens (see results), synthetic ArLQ (custom synthesized by PPR Ltd, Fareham, UK) was tested on tube foot and cardiac stomach preparations from A. rubens. […] Tube foot preparations were obtained by dissecting from starfish arms a small square-shaped piece of ambulacral body wall containing a single tube foot stem and its associated ampulla. Co ...
# [5] = system: heart ventricle; details: Achatina fulica; cited from earlier work
# From the text: (§3) Neuropeptides play a central role in the control of diverse physiological processes and behaviours in animals. Furthermore, neuropeptides are evolutionarily ancient mediators of neuronal signalling and a large number of different neuropeptide signalling pathways were already present in the common ancestor of protostomes and deuterostomes[1]–[3]. The discovery of neuropeptide signalling systems has been enabled by a variety of experimental strategies. The luqin-type neuropeptide system that is the focus of this study was first discovered using a molecular biological approach where the object ...
# [6] = system: neurons and muscles involved in feeding behaviour; details: Achatina fulica; cited from earlier work
# From the text: as §3
# [7] = system: GRL106; details: orphan G-protein coupled receptor; cited from earlier work
# From the text: as §3
# [8] = system: auricle preparations; details: Lymnaea stagnalis; cited from earlier work
# From the text: as §3
# [9] = system: receptor for the luqin-type peptide WRPGRFamide; details: cited from earlier work
# From the text: as §3
substance,measurement,setting,value
"GGGVPHVFQSGGIF-NH2 [ArTK2, tachykinin-like peptide from A. rubens]",activation of ArLQR1 (in words),[1],none of them caused activation of the receptors
same,activation of ArLQR1 (in words),[1]; listed as ArTKL,do not activate the receptors
same,activation of ArLQR2 (in words),[2],none of them caused activation of the receptors
same,activation of ArLQR2 (in words),[2]; listed as ArTKL,do not activate the receptors
SGPYSFNSGLTF-NH2 [S2],relaxation of tube foot preparations (earlier studies),[3],known tube foot relaxant; also recorded: causes relaxation of tube foot preparations; also recorded: relaxant of all three of these preparations
same,activation of ArLQR1 (in words),[1],do not activate the receptors
same,activation of ArLQR1 (in words),[1]; listed as SALMFamide-2,none of them caused activation of the receptors
same,relaxant effect on cardiac stomach and other preparations (earlier studies),[4],relaxant of all three of these preparations
same,activation of ArLQR2 (in words),[2],do not activate the receptors
same,activation of ArLQR2 (in words),[2]; listed as SALMFamide-2,none of them caused activation of the receptors
"SGQWRPQGRF-NH2 [ACEP-1, homolog of luqin (…amide) discovered in the snail Achatina fulica]",effect on beat of the heart ventricle,[5],potentiating the beat of the heart ventricle
same,effect on neurons and muscles involved in feeding behaviour,[6],excitatory effects on neurons and muscles involved in feeding behaviour
"TPHWRPQGRF-NH2 [LyCEP, luqin-type peptide (…amide) discovered in the pond snail Lymnaea stagnalis]",receptor identified for the peptide (GRL106),[7],identified as the receptor for this peptide
same,effect on beating frequency of auricle preparations,[8],increases the beating frequency of auricle preparations
WRPGRF-NH2 [luqin-type peptide of the annelid Platynereis dumerilii],receptor identified for the peptide (P. dumerilii),[9],has been identified in the annelid Platynereis dumerilii
"pQDRSKAMQAERTGQLRRLNPRF-NH2 [ArNPY, Neuropeptide Y-type peptide from A. rubens]",activation of ArLQR1 (in words),[1],do not activate the receptors; also recorded: none of them caused activation of the receptors
same,activation of ArLQR2 (in words),[2],do not activate the receptors; also recorded: none of them caused activation of the receptors
